According to article PMC10453766, “Comparison of the Effects of DOTA and NOTA Chelators on ^64Cu-Cudotadipep and ^64Cu-Cunotadipep for Prostate Cancer” (Diagnostics, 2023):
Like-named read-outs stand apart in the source and are kept apart here.

Experiments:
PSMA [1] = target: T1, PSMA (Homo sapiens, UniProt Q04609); assay: Saturation binding assay of ^125I-MIP-1095 in 22Rv1 cells; settings: saturation binding test
T1 construct: host or cells: 22Rv1 human prostate cancer cells (intact cells)
Procedure: The dissociation constant (Kd) of MIP-1095 was determined via a saturation binding assay. The saturation binding assay was performed as performed in a previous study. Briefly, the 22Rv1 cells (2 × 10^5) were aliquoted into wells in a 24-well plate and incubated with 0.7–17.5 nM (0.0037–0.1332 MBq) of ^125I-MIP-1095 at 37 °C for 1 h. To prevent nonspecific binding, 500 μM unlabeled MIP was added. Radioactivity was measured using 2480 WIZARD2 gamma counter (Perkin Elmer, Waltham, MA, USA). Statistical analysis was performed using Microsoft Excel.

PC3-PIP (PSMA+) cells = assay: Cell uptake in PC3-PIP cells; assay type: cell-based, human
Procedure: (§1) PC3-PIP or PC3-flu cells (1 × 10^6) were mixed with 3.7 MBq (100 μCi) of ^64Cu-cudotadipep or ^64Cu-cunotadipep and incubated at 37 °C and 5% CO2 for 2 h. Following incubation, the cells were washed with PBS twice and collected via centrifugation (2000 rpm, 5 min). Radioactivity was measured using 2480 WIZARD2 gamma counter (Perkin Elmer, Waltham, MA, USA). Percent (%) uptake was calculated using the ratio between the radioactivity of the cells and treated radioactivity.

PSMA [2] = target: T1, PSMA; assay: Competitive binding assay against ^125I-MIP-1095 in 22Rv1 cells; settings: for Ki: 22Rv1 cells, converted from IC50 with the Cheng–Prusoff equation using Kd of MIP-1095; for IC50: cold forms, PSMA-expressing 22Rv1 cells, 1 h, 37 °C
Procedure: The 22Rv1 cells (1 × 10^6 cells/well, 48-well plate) were washed with phosphate-buffered saline (PBS), and the culture medium was substituted with RPMI-1640 medium containing 1% bovine serum albumin. The cells were incubated for 1 h at 37 °C and 5% CO2 with unlabeled cudotadipep or cunotadipep (1.00 × 10^−4–1.00 × 10^−10 M) or 0.09–0.1 nM ^125I-(S)-2-(3-((S)-1-carboxy-5-(3-(4-iodophenyl)ureido)pentyl)ureido)pentanedioic acid (^125I-MIP-1095). The cells were washed twice in cold PBS and collected via centrifugation (2000 rpm, 5 min). Radioactivity was measured using 2480 WIZARD2 gamma counter (Perkin Elmer, Waltham, MA, USA). IC50 was calculated using Microsoft Excel and converted to Ki, using the Cheng–Prusoff equation [21].

[3] = ^18F-labeled PSMA compounds; cited from earlier work
[4] = Biodistribution in normal BALB/c mice; assay type: in vivo, mouse; settings: tail vein
Procedure: (§2) Approximately 0.93 MBq ^64Cu-cudotadipep or ^64Cu-cunotadipep was injected via the tail vein into normal BALB/c mice or PC3-PIP tumor-bearing nude mice (n = 5/group). Normal and tumor-bearing mice were euthanized at 2, 6, 24, and 48 h following injection. Tumor and normal tissues were excised and weighed, and their radioactivity was measured using a gamma counter (2480 WIZARD2 gamma counter, Perkin Elmer, Waltham, MA, USA). The radioactivity measured in each tissue was expressed as a percentage of the injected dose per gram of tissue (%ID/g).

PC3-flu (PSMA−) cells = assay: Cell uptake in PC3-flu cells; assay type: cell-based, human; settings: 1 × 10^6 cells, 3.7 MBq, 2 h, 37 °C
Procedure: as §1

[5] = Radiation-absorbed dose calculation (OLINDA/EXM) from normal mouse biodistribution; design: species or system human
Procedure: The biodistribution results of normal BALB/c mice were used to evaluate the human radiation-absorbed dose. The internal absorbed doses of ^64Cu-cudotadipep and ^64Cu-cunotadipep were evaluated using the residence time and total amount of radioactivity in the target organ of the mice. The internal absorbed dose of the mice was converted to the human dose based on the Medical Internal Radiation Dose schema, using OLINDA/EXM version 1.1 software.

PC3-PIP tumor xenograft = assay: Biodistribution in PC3-PIP tumor-bearing nude mice; assay type: in vivo, mouse; settings: tail vein
Procedure: All animal experiments followed the procedures approved by the Institutional Animal Care and Use Committee of Korea Institute of Radiological & Medical Sciences (approval No. KIRAMS2021-0044). Male BALB/c mice and athymic nude (Nu/Nu) BALB/c mice (weighing 20–25 g, 8 weeks old) were purchased from Nara Biotech (Seoul, Republic of Korea). PC3-PIP cells (1 × 10^7) were dispensed in 100 μL PBS, mixed with Matrigel, and subcutaneously implanted in the right thigh of male athymic nude (Nu/Nu) BALB/c mice. When the tumor reached 0.5–0.9 cm in diameter (2–3 weeks following implantation), biodistribution studies and PET imaging were performed.
as §2

T1 sequence (Q04609 whole entry): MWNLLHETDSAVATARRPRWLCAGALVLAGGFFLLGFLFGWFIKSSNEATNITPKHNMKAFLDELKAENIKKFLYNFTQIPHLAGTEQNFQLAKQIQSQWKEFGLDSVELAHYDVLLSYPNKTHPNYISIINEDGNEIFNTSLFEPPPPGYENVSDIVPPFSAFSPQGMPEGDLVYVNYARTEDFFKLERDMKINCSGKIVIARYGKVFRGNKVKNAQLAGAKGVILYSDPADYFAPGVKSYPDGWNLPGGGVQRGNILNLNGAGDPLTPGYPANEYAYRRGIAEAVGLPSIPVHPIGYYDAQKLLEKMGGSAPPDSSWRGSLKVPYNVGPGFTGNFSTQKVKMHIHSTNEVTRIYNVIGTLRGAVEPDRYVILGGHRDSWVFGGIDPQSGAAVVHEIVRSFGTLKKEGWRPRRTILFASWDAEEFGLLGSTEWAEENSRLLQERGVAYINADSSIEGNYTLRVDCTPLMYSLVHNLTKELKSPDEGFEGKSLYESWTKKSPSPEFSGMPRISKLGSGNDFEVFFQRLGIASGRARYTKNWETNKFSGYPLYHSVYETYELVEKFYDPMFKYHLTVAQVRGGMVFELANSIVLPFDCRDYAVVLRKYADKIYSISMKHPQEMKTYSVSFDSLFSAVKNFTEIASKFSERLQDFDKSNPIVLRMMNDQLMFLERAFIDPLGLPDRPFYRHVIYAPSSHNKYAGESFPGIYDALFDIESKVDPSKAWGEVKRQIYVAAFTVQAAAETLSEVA

## O=C(O)CC[C@H](NC(=O)N[C@@H](CCCCNC(=O)Nc1ccc(I)cc1)C(=O)O)C(=O)O [MIP-1095, ^125I-(S)-2-(3-((S)-1-carboxy-5-(3-(4-iodophenyl)ureido)pentyl)ureido)pentanedioic acid]
PSMA [1]
  Bmax: 0.25 nM
  Kd: 0.13 nM

## O=C([O-])CN1CCN(CC(=O)[O-])CCN(CC(=O)N[C@@H](CCCCNC(=O)CCCc2ccc(I)cc2)C(=O)NCCOCCOCC(=O)N(CCCC[C@H](NC(=O)N[C@@H](CCC(=O)O)C(=O)O)C(=O)O)CC(=O)O)CCN(CC(=O)[O-])CC1.[Cu+2] [Cu-cudotadipep]
PC3-PIP (PSMA+) cells; as given in the abstract
  cellular uptake: 2.93 ± 0.06 %/1 × 10^6 cells
PSMA [2]
  Ki: 6.75 ± 0.42 nM
  IC50: 16.8 ± 1.05 nM

## O=C([O-])CN1CCN(CC(=O)[O-])CCN(CC(=O)N[C@@H](CCCCNC(=O)CCCc2ccc(I)cc2)C(=O)NCCOCCOCC(=O)N(CCCC[C@H](NC(=O)N[C@@H](CCC(=O)O)C(=O)O)C(=O)O)CC(=O)O)CC1.[Cu+2] [Cu-cunotadipep]
PC3-PIP (PSMA+) cells; as given in the abstract
  cellular uptake: 6.02 ± 0.05 %/1 × 10^6 cells
PSMA [2]
  Ki: 2.17 ± 0.25 nM
  IC50: 5.42 ± 0.64 nM

## O=C(O)CC[C@H](NC(=O)N[C@@H](CCCCNC(=O)[C@H](Cc1ccc2ccccc2c1)NC(=O)c1ccc(CNC(=O)[C@H](CCC(=O)O)NC(=O)[C@H](CCC(=O)O)NC(=O)c2ccc([18F])nc2)cc1)C(=O)O)C(=O)O [^18F-PSMA-1007]
[3]
  effective dose: 2.20 × 10^−2 mSv/MBq

## O=C([O-])CN1CCN(CC(=O)[O-])CCN(CC(=O)N[C@@H](CCCCNC(=O)CCCc2ccc(I)cc2)C(=O)NCCOCCOCC(=O)N(CCCC[C@H](NC(=O)N[C@@H](CCC(=O)O)C(=O)O)C(=O)O)CC(=O)O)CCN(CC(=O)[O-])CC1.[64Cu+2] [^64Cu-cudotadipep]
PC3-PIP (PSMA+) cells; PC3-PIP cells, 1 × 10^6 cells, 3.7 MBq, 2 h, 37 °C
  cellular uptake: 2.93 ± 0.06%
[4]; 2 h
  Biodistribution, Blood: 4.27 ± 0.64 %ID/g
  Biodistribution, Bone: 1.09 ± 0.32 %ID/g
  Biodistribution, Brain: 0.26 ± 0.07 %ID/g
  Biodistribution, Fat: 1.26 ± 0.28 %ID/g
  Biodistribution, Heart: 3.02 ± 0.52 %ID/g
  Biodistribution, Intestine: 4.22 ± 0.57 %ID/g
  Biodistribution, Kidney: 45.74 ± 12.68 %ID/g
  Biodistribution, Liver: 16.12 ± 4.51 %ID/g
  Biodistribution, Lung: 5.16 ± 1.26 %ID/g
  Biodistribution, Muscle: 1.01 ± 0.15 %ID/g
  Biodistribution, Spleen: 6.80 ± 2.46 %ID/g
  Biodistribution, Stomach: 2.30 ± 0.60 %ID/g
[4]; 6 h
  Biodistribution, Blood: 2.04 ± 0.71 %ID/g
  Biodistribution, Bone: 1.10 ± 0.40 %ID/g
  Biodistribution, Brain: 0.25 ± 0.10 %ID/g
  Biodistribution, Fat: 0.72 ± 0.13 %ID/g
  Biodistribution, Heart: 2.67 ± 0.53 %ID/g
  Biodistribution, Intestine: 5.85 ± 2.69 %ID/g
  Biodistribution, Kidney: 56.43 ± 5.37 %ID/g
  Biodistribution, Liver: 19.13 ± 5.32 %ID/g
  Biodistribution, Lung: 5.77 ± 1.12 %ID/g
  Biodistribution, Muscle: 0.74 ± 0.18 %ID/g
  Biodistribution, Spleen: 7.09 ± 0.68 %ID/g
  Biodistribution, Stomach: 2.26 ± 1.59 %ID/g
[4]; 24 h
  Biodistribution, Blood: 2.01 ± 0.92 %ID/g
  Biodistribution, Bone: 0.94 ± 0.41 %ID/g
  Biodistribution, Brain: 0.37 ± 0.08 %ID/g
  Biodistribution, Fat: 0.70 ± 0.33 %ID/g
  Biodistribution, Heart: 2.91 ± 0.66 %ID/g
  Biodistribution, Intestine: 3.64 ± 0.83 %ID/g
  Biodistribution, Kidney: 41.77 ± 12.09 %ID/g
  Biodistribution, Liver: 16.15 ± 3.65 %ID/g
  Biodistribution, Lung: 5.56 ± 1.13 %ID/g
  Biodistribution, Muscle: 0.68 ± 0.18 %ID/g
  Biodistribution, Spleen: 4.14 ± 0.89 %ID/g
  Biodistribution, Stomach: 1.38 ± 0.15 %ID/g
[4]; 48 h
  Biodistribution, Blood: 1.22 ± 0.36 %ID/g
  Biodistribution, Bone: 0.96 ± 0.25 %ID/g
  Biodistribution, Brain: 0.44 ± 0.13 %ID/g
  Biodistribution, Fat: 0.51 ± 0.27 %ID/g
  Biodistribution, Heart: 2.72 ± 0.39 %ID/g
  Biodistribution, Intestine: 2.53 ± 0.54 %ID/g
  Biodistribution, Kidney: 24.37 ± 1.88 %ID/g
  Biodistribution, Liver: 13.48 ± 1.56 %ID/g
  Biodistribution, Lung: 4.66 ± 0.50 %ID/g
  Biodistribution, Muscle: 0.62 ± 0.12 %ID/g
  Biodistribution, Spleen: 2.73 ± 0.28 %ID/g
  Biodistribution, Stomach: 1.45 ± 0.65 %ID/g
PC3-flu (PSMA−) cells
  cellular uptake: 0.44 ± 0.06%
[5]; ICRP tissue-weighting factors, OLINDA/EXM, extrapolated from mouse biodistribution
  effective dose: 3.67 × 10^−1 mSv/MBq
[5]; adult males, extrapolated from normal BALB/c mouse biodistribution
  estimated radiation-absorbed dose, kidneys: 8.10 mGy/MBq
PC3-PIP tumor xenograft; 2 h
  Biodistribution, Blood: 2.79 ± 1.90 %ID/g
  Biodistribution, Bone: 1.34 ± 0.23 %ID/g
  Biodistribution, Fat: 2.22 ± 1.07 %ID/g
  Biodistribution, Heart: 2.68 ± 0.45 %ID/g
  Biodistribution, Intestine: 5.19 ± 0.68 %ID/g
  Biodistribution, Kidney: 23.11 ± 4.11 %ID/g
  Biodistribution, Liver: 28.09 ± 3.73 %ID/g
  Biodistribution, Lung: 8.02 ± 1.49 %ID/g
  Biodistribution, Muscle: 0.78 ± 0.13 %ID/g
  Biodistribution, Spleen: 11.94 ± 3.50 %ID/g
  Biodistribution, Stomach: 2.35 ± 0.63 %ID/g
  Biodistribution, Tumor: 7.95 ± 1.58 %ID/g
PC3-PIP tumor xenograft; 6 h
  Biodistribution, Blood: 1.92 ± 0.53 %ID/g
  Biodistribution, Bone: 1.25 ± 0.20 %ID/g
  Biodistribution, Fat: 1.12 ± 0.79 %ID/g
  Biodistribution, Heart: 2.30 ± 0.30 %ID/g
  Biodistribution, Intestine: 4.55 ± 0.77 %ID/g
  Biodistribution, Kidney: 21.51 ± 3.13 %ID/g
  Biodistribution, Liver: 22.44 ± 2.56 %ID/g
  Biodistribution, Lung: 7.35 ± 3.45 %ID/g
  Biodistribution, Muscle: 0.40 ± 0.13 %ID/g
  Biodistribution, Spleen: 11.43 ± 5.81 %ID/g
  Biodistribution, Stomach: 2.18 ± 0.47 %ID/g
  Biodistribution, Tumor: 6.03 ± 3.20 %ID/g
PC3-PIP tumor xenograft; 24 h
  Biodistribution, Blood: 1.75 ± 0.41 %ID/g
  Biodistribution, Bone: 1.88 ± 0.35 %ID/g
  Biodistribution, Fat: 1.23 ± 0.52 %ID/g
  Biodistribution, Heart: 2.56 ± 0.49 %ID/g
  Biodistribution, Intestine: 4.17 ± 1.45 %ID/g
  Biodistribution, Kidney: 21.57 ± 6.53 %ID/g
  Biodistribution, Liver: 20.08 ± 4.40 %ID/g
  Biodistribution, Lung: 6.00 ± 0.85 %ID/g
  Biodistribution, Muscle: 0.69 ± 0.33 %ID/g
  Biodistribution, Spleen: 10.43 ± 1.98 %ID/g
  Biodistribution, Stomach: 2.66 ± 1.28 %ID/g
  Biodistribution, Tumor: 12.12 ± 1.17 %ID/g
PC3-PIP tumor xenograft; 48 h
  Biodistribution, Blood: 1.28 ± 0.24 %ID/g
  Biodistribution, Bone: 5.05 ± 6.09 %ID/g
  Biodistribution, Fat: 0.88 ± 0.42 %ID/g
  Biodistribution, Heart: 2.55 ± 0.12 %ID/g
  Biodistribution, Intestine: 2.56 ± 0.62 %ID/g
  Biodistribution, Kidney: 20.41 ± 3.03 %ID/g
  Biodistribution, Liver: 13.34 ± 0.55 %ID/g
  Biodistribution, Lung: 4.36 ± 0.62 %ID/g
  Biodistribution, Muscle: 0.98 ± 0.24 %ID/g
  Biodistribution, Spleen: 5.74 ± 1.34 %ID/g
  Biodistribution, Stomach: 1.72 ± 0.70 %ID/g
  Biodistribution, Tumor: 8.62 ± 0.44 %ID/g

## O=C(O)CC[C@H](NP(=O)(O)OCCC[C@H](NC(=O)CC[C@H](NC(=O)CCCCCNC(=O)c1ccc([18F])cc1)C(=O)O)C(=O)O)C(=O)O [^18F-CTT1057]
[3]
  effective dose: 2.28 × 10^−2 mSv/MBq

## O=C(O)CC[C@H](NC(=O)N[C@@H](CCCCNC(=O)c1ccc([18F])nc1)C(=O)O)C(=O)O [^18F-DCFPyL]
[3]
  effective dose: 1.65 × 10^−2 mSv/MBq

## O=C([O-])CN(CCN(CC(=O)[O-])Cc1cc(CCC(=O)NCCCCCC(=O)NCCCC[C@H](NC(=O)N[C@@H](CCC(=O)O)C(=O)O)C(=O)O)ccc1O)Cc1cc(CCC(=O)O)ccc1O.[18F-].[Al+3] [^18F-PSMA-11]
[3]
  effective dose: 1.28 × 10^−2 mSv/MBq
